US12595253B2, “Benzamides of pyrazolylamino-pyrimidinyl derivatives, and compositions and methods thereof” (LYNK PHARMACEUTICALS CO. LTD., priority 2019, dated 2026)
Structures can show the parent of a compound that is named as a salt.

Assays:
JAK2 = biological target: T1, JAK2 (Homo sapiens, UniProt O60674); experiment: JAK2 microfluidic kinase assay (Caliper EZ Reader II, FAM labeled peptide substrate); assay type: biochemical
T1 construct: purchased Carna Biosciences
Method: (§1) Compounds were tested against JAK1, JAK2, JAK2V617F and TYK2. Assay Formats: JAK activity was determined in the reaction buffer 50 mM HEPES, 0.01% Brij35, 10 mM MgCl2, 2 mM DTT by a microfluidic assay. The phosphorylation of a FAM labeled peptide substrate was monitored in the Caliper EZ Reader II (Perkin Elmer). The assay condition for each batch of enzyme (Carna Biosciences) was optimized to obtain 10% conversion rate of peptide substrate. The test compounds were dissolved in DMSO to a stock concentration of 10 mM. 3-fold serially diluted compounds with top concentration of 5 μM were pre-incubated with JAK1, JAK2, JAK2V617F or TYK2 at indicated concentrations for 10 min at ambient temperature. The final DMSO concentration of assay mixture was 1%. […] The reaction was stopped by adding 50 mM EDTA. […] The percent inhibition was calculated by the following formula. % Inhibition=(Conversionmax−Conversionsample)/(Conversionmax−Conversionmin)*100 • Conversionmax means the conversion rate in the positive well without addition of compound • Conversionmin means the conversion rate in the well without addition of enzyme • Conversionsample means the conversion rate of test compounds The dose-response (percent inhibition) curve was plotted and IC50 values were determined by GraphPad software.

JAK1 = biological target: T2, JAK1 (Homo sapiens, UniProt P23458); experiment: JAK1 microfluidic kinase assay (Caliper EZ Reader II, FAM labeled peptide substrate); assay type: biochemical; conditions: IC50 JAK1 (5 nM) (1 m MATP), JAK1 5 nM, 1 mM ATP
T2 construct: purchased Carna Biosciences
T2 sequence (P23458 whole entry): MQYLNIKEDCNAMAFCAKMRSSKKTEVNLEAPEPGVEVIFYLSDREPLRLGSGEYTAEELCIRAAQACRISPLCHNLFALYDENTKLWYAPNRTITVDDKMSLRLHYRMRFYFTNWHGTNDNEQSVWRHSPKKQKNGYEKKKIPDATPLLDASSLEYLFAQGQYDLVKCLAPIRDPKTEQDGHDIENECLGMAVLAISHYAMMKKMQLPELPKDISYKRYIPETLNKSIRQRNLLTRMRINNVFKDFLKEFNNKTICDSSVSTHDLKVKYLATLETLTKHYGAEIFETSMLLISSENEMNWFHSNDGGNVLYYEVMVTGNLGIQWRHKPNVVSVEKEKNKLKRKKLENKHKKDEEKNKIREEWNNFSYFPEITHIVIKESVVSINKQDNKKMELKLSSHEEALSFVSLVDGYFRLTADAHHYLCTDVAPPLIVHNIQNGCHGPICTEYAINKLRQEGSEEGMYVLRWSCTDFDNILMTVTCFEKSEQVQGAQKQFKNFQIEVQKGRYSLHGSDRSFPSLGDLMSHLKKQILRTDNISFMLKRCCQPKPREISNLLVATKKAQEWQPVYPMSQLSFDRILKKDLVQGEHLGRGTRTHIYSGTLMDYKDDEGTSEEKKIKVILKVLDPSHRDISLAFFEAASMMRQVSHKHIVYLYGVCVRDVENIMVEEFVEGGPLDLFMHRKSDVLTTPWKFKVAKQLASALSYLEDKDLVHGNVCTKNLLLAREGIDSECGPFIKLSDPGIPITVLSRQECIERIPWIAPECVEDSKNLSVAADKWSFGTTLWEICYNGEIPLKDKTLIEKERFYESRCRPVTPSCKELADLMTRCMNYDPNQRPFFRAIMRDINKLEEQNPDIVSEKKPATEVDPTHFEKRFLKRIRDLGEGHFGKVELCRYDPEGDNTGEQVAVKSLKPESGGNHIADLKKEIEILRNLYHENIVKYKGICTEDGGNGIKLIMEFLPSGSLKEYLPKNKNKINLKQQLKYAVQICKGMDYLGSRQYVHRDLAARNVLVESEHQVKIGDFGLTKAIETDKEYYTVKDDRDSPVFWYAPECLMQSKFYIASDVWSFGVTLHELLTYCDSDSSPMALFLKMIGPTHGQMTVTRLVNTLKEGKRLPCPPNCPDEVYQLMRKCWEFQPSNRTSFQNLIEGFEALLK
Method: as §1

[1] = IC50 JAK2 ([…]) (1 mM ATP), 1 mM ATP
[2] = IC50 JAK2 ([…]) (Km ATP), Km ATP

T1 sequence (O60674 whole entry): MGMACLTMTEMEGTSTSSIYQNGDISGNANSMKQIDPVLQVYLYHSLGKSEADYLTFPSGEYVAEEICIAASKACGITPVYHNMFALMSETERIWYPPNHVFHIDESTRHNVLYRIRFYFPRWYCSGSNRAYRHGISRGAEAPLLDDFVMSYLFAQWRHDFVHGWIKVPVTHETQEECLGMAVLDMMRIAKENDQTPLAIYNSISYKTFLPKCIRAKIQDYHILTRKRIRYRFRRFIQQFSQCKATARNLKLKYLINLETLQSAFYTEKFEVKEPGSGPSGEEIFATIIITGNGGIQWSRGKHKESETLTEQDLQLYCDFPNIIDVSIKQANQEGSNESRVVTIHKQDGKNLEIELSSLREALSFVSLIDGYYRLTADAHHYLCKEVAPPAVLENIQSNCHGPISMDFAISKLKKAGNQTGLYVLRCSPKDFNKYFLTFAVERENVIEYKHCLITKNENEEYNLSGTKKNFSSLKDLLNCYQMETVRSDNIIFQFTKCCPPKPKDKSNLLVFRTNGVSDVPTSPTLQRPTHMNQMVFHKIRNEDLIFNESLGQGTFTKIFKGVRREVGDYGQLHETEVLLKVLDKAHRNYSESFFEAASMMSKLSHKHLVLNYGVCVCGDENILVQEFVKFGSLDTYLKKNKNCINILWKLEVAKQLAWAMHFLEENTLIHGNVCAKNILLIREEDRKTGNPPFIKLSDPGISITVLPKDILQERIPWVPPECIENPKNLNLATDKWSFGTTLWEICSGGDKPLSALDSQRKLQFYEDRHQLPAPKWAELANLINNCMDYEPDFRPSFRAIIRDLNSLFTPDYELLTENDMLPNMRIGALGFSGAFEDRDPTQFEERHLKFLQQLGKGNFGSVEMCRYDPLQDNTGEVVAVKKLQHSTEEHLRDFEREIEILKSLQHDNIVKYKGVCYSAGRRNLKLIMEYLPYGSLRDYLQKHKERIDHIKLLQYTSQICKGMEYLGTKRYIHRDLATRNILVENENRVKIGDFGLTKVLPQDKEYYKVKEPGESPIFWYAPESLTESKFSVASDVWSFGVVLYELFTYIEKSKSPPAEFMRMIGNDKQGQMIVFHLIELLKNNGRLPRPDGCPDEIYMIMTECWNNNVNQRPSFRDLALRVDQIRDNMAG

Question: Which IC50 (JAK2; [1]) does the source give for `Cc1cnc(Nc2cnn(C3CC(F)(F)C3)c2)nc1-c1ccc(C(=O)NCC#N)cc1` [Example 104, N-(cyanomethyl)-4-(2-((1-(3,3-difluorocyclobutyl)-1H-pyrazol-4-yl)amino)-5-methylpyrimidin-4-yl)benzamide] here?
Answer: The IC50 was 1150 nM.

Question: What about the IC50 (JAK1) of the same molecule?
Answer: The IC50 was 280 nM.

Question: How did the IC50 (JAK2; [1]) turn out when `Cc1cnc(Nc2cnn(C3CCN(C)CC3)c2)nc1-c1ccc(C(=O)N2CC(C#N)C2)cc1` [Example 92, 1-(4-(5-Methyl-2-((1-(1-methylpiperidin-4-yl)-1H-pyrazol-4-yl)amino)pyrimidin-4-yl)benzoyl)azetidine-3-carbonitrile] was run?
Answer: The IC50 was 114 nM.

Question: What about the IC50 (JAK2; [2]) of the same molecule?
Answer: Its IC50 is 3.6 nM.

Question: What about the IC50 (JAK1) of the same molecule?
Answer: Its IC50 is 253 nM.

Question: What does the source list for `CC[C@@H](C#N)NC(=O)c1ccc(-c2nc(Nc3cnn(C)c3)ncc2Cl)cc1` [Example 220, (S)-4-(5-chloro-2-((1-methyl-1H-pyrazol-4-yl)amino)pyrimidin-4-yl)-N-(1-cyanopropyl)benzamide]?
Answer: IC50 (JAK2; [1]): 70 nM; IC50 (JAK1): 16.2 nM

Question: Which results are given for `CC[C@@H](C#N)NC(=O)c1ccc(-c2nc(Nc3cnn(C4CCC(O)CC4)c3)ncc2C)cc1` (stereo partly drawn) [Example 205, (S)—N-(1-cyanopropyl)-4-(2-((1-(4-hydroxycyclohexyl)-1H-pyrazol-4-yl)amino)-5-methylpyrimidin-4-yl)benzamide]?
Answer: IC50 (JAK2; [1]): 0.52 nM; IC50 (JAK1): 9.06 nM

Question: Which IC50 (JAK2; [1]) does the source give for `CC1(C)CC(n2cc(Nc3ncc(Cl)c(-c4ccc(C(=O)NCC#N)cc4)n3)cn2)CC(C)(C)O1` [Example 181, 4-(5-Chloro-2-((1-(2,2,6,6-tetramethyltetrahydro-2H-pyran-4-yl)-1H-pyrazol-4-yl)amino)pyrimidin-4-yl)-N-(cyanomethyl)benzamide] here?
Answer: The IC50 was under 0.25 nM.

Question: And the IC50 (JAK1)?
Answer: Its IC50 is 11.5 nM.

Question: Which IC50 (JAK2; [1]) does the source give for `Cc1cnc(Nc2cnn(C3CCN(C(=O)C(C)(C)O)CC3)c2)nc1-c1ccc(C(=O)NC(C)C#N)cc1` (stereo in doubt) [Example 52, (S)—N-(1-cyanoethyl)-4-(2-((1-(1-(2-hydroxy-2-methylpropanoyl)piperidin-4-yl)-1H-pyrazol-4-yl)amino)-5-methylpyrimidin-4-yl)benzamide] here?
Answer: Its IC50 is 0.86 nM.

Question: What about the IC50 (JAK1) of the same molecule?
Answer: The IC50 was 10.7 nM.

Question: Which IC50 (JAK2; [2]) does the source give for `C[C@@H](C#N)NC(=O)c1ccc(-c2nc(Nc3cnn(C4CC4)c3)ncc2F)cc1F` [Example 117, (S)—N-(1-cyanoethyl)-4-(2-((1-cyclopropyl-1H-pyrazol-4-yl)amino)-5-fluoropyrimidin-4-yl)-2-fluorobenzamide] here?
Answer: Its IC50 is 19 nM.

Question: `Cc1cnc(Nc2cnn(C)c2)nc1-c1ccc(C(=O)NC(C)C#N)cc1` (centres unmarked) [Example 17, N-(1-Cyanoethyl)-4-(5-methyl-2-((1-methyl-1H-pyrazol-4-yl)amino)pyrimidin-4-yl)benzamide] was tested. Which IC50 (JAK2; [2]) did it give?
Answer: The IC50 was 5.15 nM.

Question: `N#CCNC(=O)c1ccc(-c2nc(Nc3cnn(CC(N)=O)c3)ncc2Cl)cc1` [Example 42, 4-(2-((1-(2-amino-2-oxoethyl)-1H-pyrazol-4-yl)amino)-5-chloropyrimidin-4-yl)-N-(cyanomethyl)benzamide] was tested. Which IC50 (JAK1) did it give?
Answer: The IC50 was 90.8 nM.

Question: For `[2H]c1c([2H])c(-c2nc(Nc3cnn(C4CC4)c3)ncc2Cl)c([2H])c([2H])c1C(=O)N[C@@H](C)C#N` [Example 162, (S)-4-(5-chloro-2-((1-cyclopropyl-1H-pyrazol-4-yl)amino)pyrimidin-4-yl)-N-(1-cyanoethyl)benzamide-2,3,5,6-d4], which IC50 (JAK2; [1]) is on record?
Answer: The IC50 was 1.12 nM.

Question: What about the IC50 (JAK1) of the same molecule?
Answer: The IC50 was 4.61 nM.

Question: How did the IC50 (JAK2; [1]) turn out when `COC[C@@H](C#N)NC(=O)c1ccc(-c2nc(Nc3cnn(C4CC4)c3)ncc2C)cc1` [Example 187, (R)—N-(1-Cyano-2-methoxyethyl)-4-(2-((1-cyclopropyl-1H-pyrazol-4-yl)amino)-5-methylpyrimidin-4-yl)benzamide] was run?
Answer: The IC50 was 13.7 nM.

Question: And the IC50 (JAK1)?
Answer: Its IC50 is 5.77 nM.

Question: How did the IC50 (JAK2; [1]) turn out when `N#CCNC(=O)c1ccc(-c2nc(Nc3cnn(C4CC4)c3)ncc2C(F)F)cc1F` [Example 109, N-(cyanomethyl)-4-(2-((1-cyclopropyl-1H-pyrazol-4-yl)amino)-5-(difluoromethyl)pyrimidin-4-yl)-2-fluorobenzamide] was run?
Answer: The IC50 was 457 nM.

Question: `N#CC1CN(C(=O)c2ccc(-c3nc(Nc4cnn(C5CC5)c4)ncc3Cl)cc2F)C1` [Example 136, 1-(4-(5-Chloro-2-((1-cyclopropyl-1H-pyrazol-4-yl)amino)pyrimidin-4-yl)-2-fluorobenzoyl)azetidine-3-carbonitrile] was tested. Which IC50 (JAK2; [2]) did it give?
Answer: Its IC50 is 9.2 nM.

Question: For `Cn1cc(Nc2nccc(-c3ccc(C(=O)NCC#N)cc3F)n2)cn1` [Example 35, N-(Cyanomethyl)-3-fluoro-4-(2-((1-methyl-1H-pyrazol-4-yl)amino)pyrimidin-4-yl)benzamide], which IC50 (JAK2; [2]) is on record?
Answer: The IC50 was 34.9 nM.

Question: How did the IC50 (JAK2; [1]) turn out when `CC[C@@H](C#N)NC(=O)c1ccc(-c2nc(Nc3cnn(C)c3)ncc2C)cc1` [Example 219, (S)—N-(1-cyanopropyl)-4-(5-methyl-2-((1-methyl-1H-pyrazol-4-yl)amino)pyrimidin-4-yl)benzamide] was run?
Answer: The IC50 was 42.5 nM.

Question: What about the IC50 (JAK1) of the same molecule?
Answer: The IC50 was 5.53 nM.

Question: How did the IC50 (JAK2; [2]) turn out when `COc1cc(-c2nc(Nc3cnn(C)c3)ncc2C)ccc1C(=O)NCC#N` [Example 33, N-(cyanomethyl)-2-methoxy-4-(5-methyl-2-((1-methyl-1H-pyrazol-4-yl)amino)pyrimidin-4-yl)benzamide] was run?
Answer: Its IC50 is 41 nM.

Question: Which IC50 (JAK2; [1]) does the source give for `Cc1cnc(Nc2cnn(C3CCNCC3)c2)nc1-c1ccc(C(=O)NCC(N)=O)cc1` [Example 82, N-(2-amino-2-oxoethyl)-4-(5-methyl-2-((1-(piperidin-4-yl)-1H-pyrazol-4-yl)amino)pyrimidin-4-yl)benzamide hydrochloride] here?
Answer: Its IC50 is 202 nM.

Question: And the IC50 (JAK2; [2])?
Answer: The IC50 was 7.53 nM.

Question: What about the IC50 (JAK1) of the same molecule?
Answer: Its IC50 is 300 nM.

Question: `Cc1cnc(Nc2cnn(C)c2)nc1-c1ccc(C(=O)NCCC#N)cc1` [Example 2, N-(2-Cyanoethyl)-4-(5-methyl-2-((1-methyl-1H-pyrazol-4-yl)amino)pyrimidin-4-yl)benzamide] was tested. Which IC50 (JAK2; [1]) did it give?
Answer: The IC50 was 57.2 nM.

Question: And the IC50 (JAK2; [2])?
Answer: Its IC50 is 1.77 nM.

Question: What about the IC50 (JAK1) of the same molecule?
Answer: Its IC50 is 33.6 nM.

Question: How did the IC50 (JAK2; [1]) turn out when `Cc1cnc(Nc2cnn(C3CC(C)(C)OC(C)(C)C3)c2)nc1-c1ccc(C(=O)N[C@@H](C)C#N)c(F)c1` [Example 224, (S)—N-(1-Cyanoethyl)-2-fluoro-4-(5-methyl-2-((1-(2,2,6,6-tetramethyltetrahydro-2H-pyran-4-yl)-1H-pyrazol-4-yl)amino)pyrimidin-4-yl)benzamide] was run?
Answer: Its IC50 is 0.49 nM.

Question: And the IC50 (JAK1)?
Answer: The IC50 was 98.4 nM.

Question: Which IC50 (JAK2; [2]) does the source give for `Cc1cnc(Nc2cnn(CC#N)c2)nc1-c1ccc(C(=O)N2CC(C#N)C2)cc1` [Example 30, 1-(4-(2-((1-(Cyanomethyl)-1H-pyrazol-4-yl)amino)-5-methylpyrimidin-4-yl)benzoyl)azetidine-3-carbonitrile] here?
Answer: Its IC50 is 11.5 nM.

Question: With `Cc1cnc(Nc2cnn(C3CC3)c2)nc1-c1ccc(C(=O)NCC#N)c(F)c1` [Example 128, N-(cyanomethyl)-4-(2-((1-cyclopropyl-1H-pyrazol-4-yl)amino)-5-methylpyrimidin-4-yl)-2-fluorobenzamide] as the molecule, how does the IC50 (JAK2; [2]) read?
Answer: The IC50 was 1.5 nM.

Question: Which IC50 (JAK2; [2]) does the source give for `N#CCNC(=O)c1ccc(-c2nc(Nc3cnn(C4CC4)c3)ncc2F)cc1F` [Example 116, N-(Cyanomethyl)-4-(2-((1-cyclopropyl-1H-pyrazol-4-yl)amino)-5-fluoropyrimidin-4-yl)-2-fluorobenzamide] here?
Answer: The IC50 was 10.6 nM.

Question: For `Cn1cc(Nc2ncc(F)c(-c3ccc(C(=O)NCC#N)c(F)c3)n2)cn1` [Example 36, N-(Cyanomethyl)-2-fluoro-4-(5-fluoro-2-((1-methyl-1H-pyrazol-4-yl)amino)pyrimidin-4-yl)benzamide], which IC50 (JAK2; [2]) is on record?
Answer: Its IC50 is 22 nM.

Question: `Cc1cnc(Nc2cnn(C3CCN(C(=O)C4CC4)CC3)c2)nc1-c1ccc(C(=O)N[C@@H](C)C#N)nc1` [Example 151, (S)—N-(1-cyanoethyl)-5-(2-((1-(1-(cyclopropanecarbonyl)piperidin-4-yl)-1H-pyrazol-4-yl)amino)-5-methylpyrimidin-4-yl)picolinamide] was tested. Which IC50 (JAK2; [1]) did it give?
Answer: Its IC50 is 32.4 nM.

Question: What about the IC50 (JAK1) of the same molecule?
Answer: Its IC50 is 72.1 nM.

Question: Which IC50 (JAK2; [2]) does the source give for `N#CCNC(=O)c1ccc(-c2nc(Nc3cnn(CC(F)F)c3)ncc2F)cc1F` [Example 131, N-(cyanomethyl)-4-(2-((1-(2,2-difluoroethyl)-1H-pyrazol-4-yl)amino)-5-fluoropyrimidin-4-yl)-2-fluorobenzamide] here?
Answer: Its IC50 is 26.2 nM.

Question: `CC(=O)N1CCC(n2cc(Nc3ncc(C)c(-c4ccc(C(=O)N5CC(C#N)C5)cc4)n3)cn2)CC1` [Example 102, 1-(4-(2-((1-(1-Acetylpiperidin-4-yl)-1H-pyrazol-4-yl)amino)-5-methylpyrimidin-4-yl)benzoyl)azetidine-3-carbonitrile] was tested. Which IC50 (JAK2; [2]) did it give?
Answer: The IC50 was 2.6 nM.

Question: What does the source list for `Cn1cc(Nc2ncc(Cl)c(-c3ccc(C(=O)NCC4(C#N)CC4)cc3)n2)cn1` [Example 124]?
Answer: IC50 (JAK2; [1]): 47.1 nM; IC50 (JAK1): 22 nM

Question: For `Cc1cnc(Nc2cnn(C3CC3)c2)nc1-c1ccc(C(=O)N2CC(C#N)C2)cc1` [Example 29, 1-(4-(2-((1-Cyclopropyl-1H-pyrazol-4-yl)amino)-5-methylpyrimidin-4-yl)benzoyl)azetidine-3-carbonitrile], which IC50 (JAK2; [2]) is on record?
Answer: The IC50 was 5.49 nM.

Question: Which IC50 (JAK2; [2]) does the source give for `Cc1cnc(Nc2cnn(C)c2)nc1-c1ccc(C(=O)NCC(O)CO)cc1` (centres unmarked) [Example 14, N-(2,3-Dihydroxypropyl)-4-(5-methyl-2-((1-methyl-1H-pyrazol-4-yl)amino)pyrimidin-4-yl)benzamide] here?
Answer: Its IC50 is 14.3 nM.

Question: Which IC50 (JAK2; [2]) does the source give for `Cc1cnc(Nc2cnn(CC(F)(F)F)c2)nc1-c1ccc(C(=O)N2CC(C#N)C2)cc1` [Example 5, 1-(4-(5-Methyl-2-((1-(2,2,2-trifluoroethyl)-1H-pyrazol-4-yl)amino)pyrimidin-4-yl)benzoyl)azetidine-3-carbonitrile] here?
Answer: Its IC50 is 16.6 nM.
